According to ChEMBL document CHEMBL1649335, “Discovery of {1-[4-(2-{hexahydropyrrolo[3,4-c]pyrrol-2(1H)-yl}-1H-benzimidazol-1-yl)piperidin-1-yl]cyclooctyl}methanol, systemically potent novel non-peptide agonist of nociceptin/orphanin FQ receptor as analgesic for the treatment of neuropathic pain: design, synthesis, and structure-activity …” (Bioorg Med Chem, 2010):
The source made the active and inactive calls.

Assays:
[1] = molecular target: Adrenergic receptor alpha-1 (Rattus norvegicus) (UniProt P15823+P23944+P43140); assay: Inhibition of rat alpha1 adrenoceptor at 1 uM relative to control
Rattus norvegicus [2] = organism: Rattus norvegicus; assay: Inhibition of rat thyroid hormone receptor at 1 uM relative to control
[3] = molecular target: Muscarinic acetylcholine receptor M2 (Homo sapiens) (UniProt P08172); assay: Inhibition of human muscarinic M2 receptor at 1 uM relative to control
[4] = Drug level Sprague-Dawley rat brain at 10 mg/kg, sc after 0.5 hrs; assay type: ADME, organism-based; design: dose 10 mg/kg, route subcutaneous; conditions: read-out: Drug uptake
[5] = molecular target: Type-2 angiotensin II receptor (Homo sapiens) (UniProt P50052); assay: Inhibition of human angiotensin 2 AT2 receptor at 1 uM relative to control
[6] = molecular target: Adenosine receptor A1 (Homo sapiens) (UniProt P30542); assay: Inhibition of human adenosine A1 receptor at 1 uM relative to control
Rattus norvegicus [7] = assay: Antiallodynic activity against von Frey hair mechanically stimulated neuropathic pain in Sprague-Dawley rat assessed as increase of response threshold at 30 mg/kg, sc after 2 hrs relative to control; assay type: functional; conditions: route subcutaneous
monoamine oxidase B = monoamine oxidase B (Homo sapiens, UniProt P27338); assay: Inhibition of human monoamine oxidase B at 1 uM relative to control
[8] = molecular target: D(3) dopamine receptor (Homo sapiens) (UniProt P35462); assay: Inhibition of human dopamine D3 receptor at 1 uM relative to control
[9] = molecular target: Beta-2 adrenergic receptor (Homo sapiens) (UniProt P07550); assay: Inhibition of human beta2 adrenoceptor at 1 uM relative to control
[10] = molecular target: Muscarinic acetylcholine receptor (Rattus norvegicus) (UniProt P08482+P08483+P08485+P08911+P10980); assay: Inhibition of rat muscarinic M receptor at 1 uM relative to control
Rattus norvegicus [11] = assay: Antiallodynic activity against von Frey hair mechanically stimulated neuropathic pain in Sprague-Dawley rat assessed as increase of response threshold at 30 mg/kg, sc after 30 mins relative to control; assay type: functional; conditions: route subcutaneous
[12] = molecular target: Cysteinyl leukotriene receptor 1 (Homo sapiens) (UniProt Q9Y271); assay: Inhibition of human leukotriene D4 receptor at 1 uM relative to control
[13] = molecular target: Voltage-gated inwardly rectifying potassium channel KCNH2 (Homo sapiens, UniProt Q12809); assay: Displacement of [3H]dofetilide from human ERG expressed in HEK293 cells after 60 mins by liquid scintillation counting; assay type: cell-based
[14] = molecular target: Substance-P receptor (Homo sapiens) (UniProt P25103); assay: Inhibition of human tachykinin NK1 receptor at 1 uM relative to control
Rattus norvegicus [15] = organism: Rattus norvegicus; assay: Stimulation of rat adenylate cyclase at 1 uM relative to basal activity
Rattus norvegicus [16] = assay: Antiallodynic activity against von Frey hair mechanically stimulated neuropathic pain in sc dosed Sprague-Dawley rat assessed as increase of response threshold after 4 hrs; assay type: functional
[17] = molecular target: Glutamate NMDA receptor (Rattus norvegicus) (UniProt P35439+Q00959+Q00960+Q00961+Q62645+Q8VHN2+Q9R1M7); assay: Inhibition of rat NMDA receptor at 1 uM relative to control; assay type: protein-complex assay
[18] = Drug level Sprague-Dawley rat cerebrospinal fluid at 10 mg/kg, sc after 0.5 hrs; assay type: ADME, organism-based; design: dose 10 mg/kg, route subcutaneous; conditions: read-out: Drug uptake
Rattus norvegicus [19] = organism: Rattus norvegicus; assay: Inhibition of rat 5-HT receptor at 1 uM relative to control
Rattus norvegicus [20] = assay: Antiallodynic activity against von Frey hair mechanically stimulated neuropathic pain in sc dosed Sprague-Dawley rat assessed as assessed as minimum effective dose to increase of response threshold after 30 mins; assay type: functional
Rattus norvegicus [21] = assay: Antiallodynic activity against von Frey hair mechanically stimulated neuropathic pain in Sprague-Dawley rat assessed as increase of response threshold at 10 mg/kg, sc after 1 hr relative to control; assay type: functional; conditions: route subcutaneous
Rattus norvegicus [22] = assay: Antiallodynic activity against von Frey hair mechanically stimulated neuropathic pain in intrathecally dosed Sprague-Dawley rat assessed as assessed as minimum effective dose to increase of response threshold per site after 20 mins; assay type: functional
Rattus norvegicus [23] = organism: Rattus norvegicus; assay: Inhibition of rat kainate receptor at 1 uM relative to control
Rattus norvegicus [24] = organism: Rattus norvegicus; assay: Inhibition of rat chloride channel at 1 uM relative to control
Rattus norvegicus [25] = assay: Antiallodynic activity against von Frey hair mechanically stimulated neuropathic pain in Sprague-Dawley rat assessed as effect on allodynia in contralateral paw at 5.5 to 170 nmol/site administered intrathecally after 1 hr; assay type: functional, organism-based
Rattus norvegicus [26] = assay: Antiallodynic activity against von Frey hair mechanically stimulated neuropathic pain in sc dosed Sprague-Dawley rat assessed as increase of response threshold after 30 mins; assay type: functional; conditions: 0.5 h
[27] = molecular target: Small conductance calcium-activated potassium channel protein 1 (Rattus norvegicus) (UniProt P70606); assay: Inhibition of rat SKCa channel at 1 uM relative to control
[28] = molecular target: Muscarinic acetylcholine receptor M3 (Homo sapiens) (UniProt P20309); assay: Inhibition of human muscarinic M3 receptor at 1 uM relative to control
[29] = molecular target: 5-hydroxytryptamine receptor 2A (Homo sapiens) (UniProt P28223); assay: Inhibition of human 5-HT2A receptor at 1 uM relative to control
Rattus norvegicus [30] = organism: Rattus norvegicus; assay: Inhibition of rat sodium channel site 2 at 1 uM relative to control
Rattus norvegicus [31] = assay: Antiallodynic activity against von Frey hair mechanically stimulated neuropathic pain in Sprague-Dawley rat assessed as increase of response threshold per site at 5.5 to 170 nmol/site, icv after 1 hr; assay type: functional, organism-based
Rattus norvegicus [32] = assay: Antiallodynic activity against von Frey hair mechanically stimulated neuropathic pain in Sprague-Dawley rat assessed as increase of response threshold per site at 55 nmol/site administered intrathecally after 20 mins relative to control; assay type: functional
[33] = molecular target: Cannabinoid receptor 1 (Homo sapiens) (UniProt P21554); assay: Inhibition of human cannabinoid CB1 receptor at 1 uM relative to control
[34] = molecular target: Beta-1 adrenergic receptor (Homo sapiens) (UniProt P08588); assay: Inhibition of human beta1 adrenoceptor at 1 uM relative to control
[35] = molecular target: Glucocorticoid receptor (Homo sapiens) (UniProt P04150); assay: Inhibition of human glucocorticoid receptor at 1 uM relative to control
Rattus norvegicus [36] = organism: Rattus norvegicus; assay: Inhibition of rat AMPA receptor at 1 uM relative to control
Rattus norvegicus [37] = assay: Antiallodynic activity against von Frey hair mechanically stimulated neuropathic pain in Sprague-Dawley rat assessed as increase of response threshold per site at 55 nmol/site, icv after 20 mins relative to control; assay type: functional
Rattus norvegicus [38] = organism: Rattus norvegicus; assay: Inhibition of rat central benzodiazepine receptor at 1 uM relative to control
Rattus norvegicus [39] = assay: Toxicity in von Frey hair mechanically stimulated neuropathic pain Sprague-Dawley rat model assessed as respiratory depression at up to 170 nmol/site, administered intrathecally; assay type: organism-based; conditions: in vivo, icv_or_intrathecal
[40] = molecular target: Adenosine receptor A2a (Homo sapiens) (UniProt P29274); assay: Inhibition of human adenosine A2A receptor at 1 uM relative to control
Rattus norvegicus [41] = organism: Rattus norvegicus; assay: Inhibition of rat sigma receptor at 1 uM relative to control
in vitro = conditions: human, liver microsomes
Rattus norvegicus [42] = organism: Rattus norvegicus; assay: Inhibition of rat N-type calcium channel at 1 uM relative to control

Glucocorticoid receptor (Homo sapiens), sequence (P04150 whole entry): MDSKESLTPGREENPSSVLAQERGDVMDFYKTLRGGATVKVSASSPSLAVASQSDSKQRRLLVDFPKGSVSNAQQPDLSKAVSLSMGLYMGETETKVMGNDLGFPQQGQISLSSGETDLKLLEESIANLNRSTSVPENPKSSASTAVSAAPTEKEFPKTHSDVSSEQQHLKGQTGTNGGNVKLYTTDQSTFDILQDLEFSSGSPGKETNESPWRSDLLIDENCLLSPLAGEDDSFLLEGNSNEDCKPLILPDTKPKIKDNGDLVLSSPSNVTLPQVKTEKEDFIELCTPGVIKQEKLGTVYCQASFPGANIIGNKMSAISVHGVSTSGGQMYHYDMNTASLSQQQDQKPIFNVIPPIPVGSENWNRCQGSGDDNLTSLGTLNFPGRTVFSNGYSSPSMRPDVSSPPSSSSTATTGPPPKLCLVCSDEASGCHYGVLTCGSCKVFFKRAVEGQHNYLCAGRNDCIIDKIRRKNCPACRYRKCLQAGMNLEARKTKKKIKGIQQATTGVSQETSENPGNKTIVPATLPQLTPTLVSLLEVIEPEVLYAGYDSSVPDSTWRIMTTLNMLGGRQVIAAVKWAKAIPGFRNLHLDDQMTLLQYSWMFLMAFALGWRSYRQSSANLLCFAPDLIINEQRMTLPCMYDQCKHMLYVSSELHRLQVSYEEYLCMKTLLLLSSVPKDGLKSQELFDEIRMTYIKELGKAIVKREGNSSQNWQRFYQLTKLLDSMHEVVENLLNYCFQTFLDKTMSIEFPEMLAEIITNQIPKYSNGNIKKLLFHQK
Small conductance calcium-activated potassium channel protein 1 (Rattus norvegicus), sequence (P70606 whole entry): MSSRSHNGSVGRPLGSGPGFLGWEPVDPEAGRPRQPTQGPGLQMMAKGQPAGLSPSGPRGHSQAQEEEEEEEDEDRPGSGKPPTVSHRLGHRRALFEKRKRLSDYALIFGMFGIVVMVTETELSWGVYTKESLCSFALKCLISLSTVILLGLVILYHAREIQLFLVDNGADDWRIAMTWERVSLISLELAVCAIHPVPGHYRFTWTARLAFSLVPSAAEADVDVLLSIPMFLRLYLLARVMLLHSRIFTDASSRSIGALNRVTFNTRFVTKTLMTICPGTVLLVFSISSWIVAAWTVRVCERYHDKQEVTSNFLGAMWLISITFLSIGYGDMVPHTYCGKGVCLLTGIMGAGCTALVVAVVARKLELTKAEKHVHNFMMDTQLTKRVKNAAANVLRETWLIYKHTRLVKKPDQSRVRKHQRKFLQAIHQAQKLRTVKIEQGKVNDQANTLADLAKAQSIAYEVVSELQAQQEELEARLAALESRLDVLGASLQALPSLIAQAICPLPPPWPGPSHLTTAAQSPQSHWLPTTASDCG
5-hydroxytryptamine receptor 2A (Homo sapiens), sequence (P28223 whole entry): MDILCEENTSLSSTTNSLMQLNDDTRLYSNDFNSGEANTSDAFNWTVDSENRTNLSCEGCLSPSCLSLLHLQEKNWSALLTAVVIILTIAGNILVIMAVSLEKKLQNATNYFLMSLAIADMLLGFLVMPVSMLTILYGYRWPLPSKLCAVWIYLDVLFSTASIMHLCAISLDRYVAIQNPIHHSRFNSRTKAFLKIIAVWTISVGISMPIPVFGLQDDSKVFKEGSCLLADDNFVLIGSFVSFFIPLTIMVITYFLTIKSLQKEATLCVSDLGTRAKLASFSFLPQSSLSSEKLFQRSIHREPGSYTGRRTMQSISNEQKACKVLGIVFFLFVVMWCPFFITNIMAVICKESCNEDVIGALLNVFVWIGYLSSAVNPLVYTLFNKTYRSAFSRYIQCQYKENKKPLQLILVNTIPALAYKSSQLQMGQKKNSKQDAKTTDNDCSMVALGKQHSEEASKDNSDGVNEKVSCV
Muscarinic acetylcholine receptor M2 (Homo sapiens), sequence (P08172 whole entry): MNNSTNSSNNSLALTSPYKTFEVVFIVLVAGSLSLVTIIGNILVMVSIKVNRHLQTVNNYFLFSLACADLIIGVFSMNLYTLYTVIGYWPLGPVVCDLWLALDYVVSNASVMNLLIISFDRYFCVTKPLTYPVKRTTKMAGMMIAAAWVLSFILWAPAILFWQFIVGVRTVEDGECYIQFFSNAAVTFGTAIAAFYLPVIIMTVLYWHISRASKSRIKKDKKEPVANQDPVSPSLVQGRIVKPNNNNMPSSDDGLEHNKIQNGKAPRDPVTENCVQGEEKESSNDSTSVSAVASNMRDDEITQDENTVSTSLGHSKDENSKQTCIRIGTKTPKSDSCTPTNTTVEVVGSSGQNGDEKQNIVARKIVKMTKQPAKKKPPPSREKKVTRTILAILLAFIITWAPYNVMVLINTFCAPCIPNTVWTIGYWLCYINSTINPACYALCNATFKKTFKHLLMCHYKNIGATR
Cysteinyl leukotriene receptor 1 (Homo sapiens), sequence (Q9Y271 whole entry): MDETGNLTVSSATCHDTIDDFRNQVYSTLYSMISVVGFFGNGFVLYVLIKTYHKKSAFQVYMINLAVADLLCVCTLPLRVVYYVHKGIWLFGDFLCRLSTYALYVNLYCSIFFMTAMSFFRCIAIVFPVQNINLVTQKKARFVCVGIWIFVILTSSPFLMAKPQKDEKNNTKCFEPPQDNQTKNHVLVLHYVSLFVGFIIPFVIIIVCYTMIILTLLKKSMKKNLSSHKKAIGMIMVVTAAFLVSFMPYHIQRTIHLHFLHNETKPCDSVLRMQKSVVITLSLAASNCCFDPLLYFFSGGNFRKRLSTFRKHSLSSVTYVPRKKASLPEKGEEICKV
Cannabinoid receptor 1 (Homo sapiens), sequence (P21554 whole entry): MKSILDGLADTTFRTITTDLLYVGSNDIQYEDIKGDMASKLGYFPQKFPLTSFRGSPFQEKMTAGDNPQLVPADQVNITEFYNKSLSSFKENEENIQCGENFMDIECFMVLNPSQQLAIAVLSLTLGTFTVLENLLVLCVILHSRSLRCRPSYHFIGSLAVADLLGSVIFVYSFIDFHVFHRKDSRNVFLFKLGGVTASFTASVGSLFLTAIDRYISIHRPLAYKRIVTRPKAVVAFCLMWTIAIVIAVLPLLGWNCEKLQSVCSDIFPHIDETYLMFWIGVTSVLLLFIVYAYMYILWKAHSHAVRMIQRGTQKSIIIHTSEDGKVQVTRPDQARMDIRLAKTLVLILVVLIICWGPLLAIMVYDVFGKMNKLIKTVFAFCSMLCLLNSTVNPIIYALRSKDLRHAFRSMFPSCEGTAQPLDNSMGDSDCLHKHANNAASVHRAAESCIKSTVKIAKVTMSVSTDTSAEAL
Adenosine receptor A1 (Homo sapiens), sequence (P30542 whole entry): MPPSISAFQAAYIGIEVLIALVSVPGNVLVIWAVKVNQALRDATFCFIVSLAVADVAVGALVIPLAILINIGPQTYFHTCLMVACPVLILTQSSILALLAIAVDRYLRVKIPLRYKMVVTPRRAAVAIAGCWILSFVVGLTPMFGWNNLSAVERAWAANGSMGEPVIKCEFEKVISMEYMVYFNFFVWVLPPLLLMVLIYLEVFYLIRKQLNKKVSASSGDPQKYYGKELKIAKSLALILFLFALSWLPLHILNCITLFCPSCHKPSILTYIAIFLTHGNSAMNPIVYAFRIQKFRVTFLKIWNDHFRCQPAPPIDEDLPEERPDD
Voltage-gated inwardly rectifying potassium channel KCNH2, sequence (Q12809 whole entry): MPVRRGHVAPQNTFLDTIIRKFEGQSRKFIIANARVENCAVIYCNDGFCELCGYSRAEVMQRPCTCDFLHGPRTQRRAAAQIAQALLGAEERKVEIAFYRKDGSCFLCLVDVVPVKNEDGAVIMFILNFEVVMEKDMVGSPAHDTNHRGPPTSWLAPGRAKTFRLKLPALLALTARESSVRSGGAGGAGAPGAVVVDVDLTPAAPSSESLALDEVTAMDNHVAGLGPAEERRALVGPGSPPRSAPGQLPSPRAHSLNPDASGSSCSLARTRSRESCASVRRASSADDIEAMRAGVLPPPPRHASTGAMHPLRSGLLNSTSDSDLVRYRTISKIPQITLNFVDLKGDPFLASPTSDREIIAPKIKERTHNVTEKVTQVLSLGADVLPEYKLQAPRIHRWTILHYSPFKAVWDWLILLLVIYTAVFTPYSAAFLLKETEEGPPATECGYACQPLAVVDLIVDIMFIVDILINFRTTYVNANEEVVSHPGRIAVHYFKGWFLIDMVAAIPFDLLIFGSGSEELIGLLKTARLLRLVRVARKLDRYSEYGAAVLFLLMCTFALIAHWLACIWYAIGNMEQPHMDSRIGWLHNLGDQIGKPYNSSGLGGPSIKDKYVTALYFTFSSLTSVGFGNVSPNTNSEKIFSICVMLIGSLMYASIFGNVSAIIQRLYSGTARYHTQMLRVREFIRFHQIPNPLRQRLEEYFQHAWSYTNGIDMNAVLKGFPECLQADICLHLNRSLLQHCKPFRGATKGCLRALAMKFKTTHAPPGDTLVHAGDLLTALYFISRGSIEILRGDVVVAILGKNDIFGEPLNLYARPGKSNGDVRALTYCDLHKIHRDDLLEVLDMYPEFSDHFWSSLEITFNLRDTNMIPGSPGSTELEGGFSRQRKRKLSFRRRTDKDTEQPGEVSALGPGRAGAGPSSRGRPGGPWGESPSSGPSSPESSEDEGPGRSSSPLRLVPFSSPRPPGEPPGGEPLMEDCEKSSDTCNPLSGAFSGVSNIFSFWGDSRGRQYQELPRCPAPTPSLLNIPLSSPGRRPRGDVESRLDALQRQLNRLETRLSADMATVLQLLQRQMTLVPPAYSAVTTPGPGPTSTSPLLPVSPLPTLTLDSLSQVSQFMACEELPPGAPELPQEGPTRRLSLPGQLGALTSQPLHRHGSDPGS
Beta-1 adrenergic receptor (Homo sapiens), sequence (P08588 whole entry, looked up): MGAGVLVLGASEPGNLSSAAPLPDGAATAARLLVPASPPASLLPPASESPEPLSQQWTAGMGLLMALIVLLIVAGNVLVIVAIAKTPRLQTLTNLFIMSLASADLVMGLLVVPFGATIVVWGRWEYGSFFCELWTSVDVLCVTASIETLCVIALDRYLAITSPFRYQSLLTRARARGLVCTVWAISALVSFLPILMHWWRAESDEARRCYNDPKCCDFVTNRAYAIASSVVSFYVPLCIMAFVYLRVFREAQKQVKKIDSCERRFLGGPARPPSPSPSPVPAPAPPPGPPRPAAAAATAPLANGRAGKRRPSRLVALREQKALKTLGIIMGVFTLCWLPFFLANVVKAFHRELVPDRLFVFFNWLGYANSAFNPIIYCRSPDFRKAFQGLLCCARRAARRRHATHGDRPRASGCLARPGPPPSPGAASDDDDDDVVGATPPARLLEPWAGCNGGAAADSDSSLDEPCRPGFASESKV

OCC1(N2CCC(n3c(N4CC5CNCC5C4)nc4ccccc43)CC2)CCCCCCC1 (centres undefined)
inhibition [1]: 16%
inhibition (Rattus norvegicus [2]): < 10%
inhibition [3]: 19%
concentration at 0.5 h [4]: 152 ng/mL
inhibition [5]: < 10%
inhibition [6]: < 10%
Activity (Rattus norvegicus [7]): 35.8%
inhibition at 1 µM (monoamine oxidase B): < 10%
inhibition [8]: < 10%
inhibition [9]: 53%
inhibition [10]: 38%
Activity (Rattus norvegicus [11]): 57.6%
inhibition [12]: < 10%
Ki [13]: 3.7 µM
inhibition [14]: < 10%
inhibition (Rattus norvegicus [15]): < 10%
ED50 (Rattus norvegicus [16]): > 30 mg/kg
inhibition [17]: < 10%
concentration at 0.5 h [18]: 11 ng/mL
inhibition (Rattus norvegicus [19]): < 10%
MED (Rattus norvegicus [20]): 30 mg/kg
Activity (Rattus norvegicus [21]): 37.6%
MED (Rattus norvegicus [22]): 55 nmol
inhibition (Rattus norvegicus [23]): 32%
inhibition (Rattus norvegicus [24]): < 10%
Activity (Rattus norvegicus [25]): inactive
ED50 (Rattus norvegicus [26]): 26.8 mg/kg
inhibition [27]: < 10%
inhibition [28]: < 10%
inhibition [29]: < 10%
inhibition (Rattus norvegicus [30]): < 10%
ED50 (Rattus norvegicus [31]): inactive
Activity (Rattus norvegicus [32]): 49.4%
inhibition [33]: 18%
inhibition [34]: < 10%
inhibition [35]: < 10%
inhibition (Rattus norvegicus [36]): < 10%
Activity (Rattus norvegicus [37]): 23.7%
inhibition (Rattus norvegicus [38]): < 10%
Activity (Rattus norvegicus [39]): Non-toxic
inhibition [40]: < 10%
inhibition (Rattus norvegicus [41]): 10%
half-life at 1 µM (in vitro): 45.6 min
inhibition (Rattus norvegicus [42]): < 10%
